Assay results as given in patent US11530206B2, “Phenylaminopyrimidine amide autophagy inhibitors and methods of use thereof” (Deciphera Pharmaceuticals, LLC, priority 2019, dated 2022).

Experiments:
[1] = biological target: T1, ULK1 kinase (Homo sapiens, UniProt O75385); assay: Biochemical assay for ULK1.2 (coupled pyruvate kinase/lactate dehydrogenase assay); settings: 19 nM ULK1 (residues 1-314, His tag), myelin basic protein, 1 mM ATP
T1 construct: purchased Eurofins 14-959
T1 sequence (O75385 with tags, fused parts or gaps): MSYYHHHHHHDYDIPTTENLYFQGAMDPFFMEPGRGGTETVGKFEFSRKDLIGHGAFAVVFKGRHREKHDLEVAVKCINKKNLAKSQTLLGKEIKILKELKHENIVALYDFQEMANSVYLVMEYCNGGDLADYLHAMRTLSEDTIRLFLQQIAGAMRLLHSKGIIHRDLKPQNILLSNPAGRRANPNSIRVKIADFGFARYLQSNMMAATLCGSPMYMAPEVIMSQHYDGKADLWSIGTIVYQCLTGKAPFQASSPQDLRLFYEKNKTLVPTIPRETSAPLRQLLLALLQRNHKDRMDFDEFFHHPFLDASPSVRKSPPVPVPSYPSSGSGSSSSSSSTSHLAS
Experimental: Biochemical Assay for ULK1.2 (SEQ. ID NO: 1)
Inhibition of ULK1 was measured by adding serial diluted test compound (final assay concentration of 1% DMSO). A decrease in absorption at 340 nm was monitored continuously for 6 hours at 30° C. on a multi-mode microplate reader (BioTek). The reaction rate was calculated using the 2-3 h time frame. The reaction rate at each concentration of compound was converted to percent inhibition using controls (i.e. reaction with no test compound and reaction with a known inhibitor) and IC50 values were calculated by fitting a four-parameter sigmoidal curve to the data using Prism (GraphPad software).

[2] = biological target: T2, LRRK2 kinase (Homo sapiens, UniProt Q5S007); assay: Biochemical assay for LRRK2 (coupled pyruvate kinase/lactate dehydrogenase assay); settings: 26.4 nM LRRK2 (residues 970-2528), peptide substrate, 1 mM ATP
T2 construct: purchased Thermo Fisher
T2 sequence (Q5S007 with tags, fused parts or gaps): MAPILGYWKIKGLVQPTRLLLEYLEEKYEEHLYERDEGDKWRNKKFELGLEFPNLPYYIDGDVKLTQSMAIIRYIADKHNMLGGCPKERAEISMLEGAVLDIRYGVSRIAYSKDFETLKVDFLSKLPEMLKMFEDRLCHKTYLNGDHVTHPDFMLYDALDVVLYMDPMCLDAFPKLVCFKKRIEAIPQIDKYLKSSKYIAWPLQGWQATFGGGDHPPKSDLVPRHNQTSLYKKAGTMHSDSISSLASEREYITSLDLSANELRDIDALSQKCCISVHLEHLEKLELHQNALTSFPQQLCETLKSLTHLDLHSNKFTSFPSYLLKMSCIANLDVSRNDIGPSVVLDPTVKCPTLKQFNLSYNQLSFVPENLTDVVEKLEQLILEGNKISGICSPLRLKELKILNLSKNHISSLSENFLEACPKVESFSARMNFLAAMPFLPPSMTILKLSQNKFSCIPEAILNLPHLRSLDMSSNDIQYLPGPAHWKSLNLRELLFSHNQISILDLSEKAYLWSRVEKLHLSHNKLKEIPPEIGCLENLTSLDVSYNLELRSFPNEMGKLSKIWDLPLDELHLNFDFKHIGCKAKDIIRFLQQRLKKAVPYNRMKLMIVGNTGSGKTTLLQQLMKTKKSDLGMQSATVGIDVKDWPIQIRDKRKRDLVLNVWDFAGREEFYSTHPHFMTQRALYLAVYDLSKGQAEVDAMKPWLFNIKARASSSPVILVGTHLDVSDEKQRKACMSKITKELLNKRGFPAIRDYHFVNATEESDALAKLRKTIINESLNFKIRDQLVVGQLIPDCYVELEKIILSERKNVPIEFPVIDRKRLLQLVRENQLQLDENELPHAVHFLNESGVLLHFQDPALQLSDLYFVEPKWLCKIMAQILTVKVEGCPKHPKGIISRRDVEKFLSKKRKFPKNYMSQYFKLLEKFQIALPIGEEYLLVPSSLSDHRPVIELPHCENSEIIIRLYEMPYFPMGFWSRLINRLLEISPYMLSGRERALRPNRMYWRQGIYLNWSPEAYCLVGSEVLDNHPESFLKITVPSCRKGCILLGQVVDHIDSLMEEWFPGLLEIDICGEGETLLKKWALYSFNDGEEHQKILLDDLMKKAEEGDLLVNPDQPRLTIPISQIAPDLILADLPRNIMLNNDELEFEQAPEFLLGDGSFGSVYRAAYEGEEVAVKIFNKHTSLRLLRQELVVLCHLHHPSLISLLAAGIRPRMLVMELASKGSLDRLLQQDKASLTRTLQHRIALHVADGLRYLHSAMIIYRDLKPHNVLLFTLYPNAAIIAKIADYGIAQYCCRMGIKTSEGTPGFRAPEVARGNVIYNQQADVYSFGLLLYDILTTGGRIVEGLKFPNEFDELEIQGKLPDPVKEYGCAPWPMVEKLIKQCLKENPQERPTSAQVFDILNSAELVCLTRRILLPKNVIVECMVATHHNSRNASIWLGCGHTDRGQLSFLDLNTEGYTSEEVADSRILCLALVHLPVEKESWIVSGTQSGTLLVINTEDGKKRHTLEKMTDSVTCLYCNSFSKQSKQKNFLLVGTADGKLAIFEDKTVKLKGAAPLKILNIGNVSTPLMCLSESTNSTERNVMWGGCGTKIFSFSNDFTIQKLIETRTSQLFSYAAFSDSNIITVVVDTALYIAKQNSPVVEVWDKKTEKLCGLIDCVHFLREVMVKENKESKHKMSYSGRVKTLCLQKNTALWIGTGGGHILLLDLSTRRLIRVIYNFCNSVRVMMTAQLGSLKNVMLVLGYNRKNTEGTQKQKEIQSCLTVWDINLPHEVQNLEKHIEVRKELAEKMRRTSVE
Experimental: Example 138. Biochemical Assay for LRRK2 (SEQ. ID NO: 4)
Activity of LRRK2 kinase was determined spectroscopically using a coupled pyruvate kinase/lactate dehydrogenase assay that continuously monitors the ATP hydrolysis-dependent oxidation of NADH (e.g., Schindler et al. Science (2000) 289: 1938-1942). Assays were conducted in 384-well plates (100 μL final volume) using 26.4 nM LRRK2 (Thermo Fisher), 0.1 mM peptide substrate ([…] (SEQ ID NO: 6)), 1.5 units pyruvate kinase, 2.1 units lactate dehydrogenase, 1 mM phosphoenol pyruvate, 0.28 mM NADH and 1 mM ATP in assay buffer (100 mM Tris, pH 7.5, 15 mM MgCl2, 0.5 mM DTT, 0.004% (w/v) BSA, and 0.004% Triton X-100). Inhibition of LRRK2 was measured by adding serial diluted test compound (final assay concentration of 1% DMSO). A decrease in absorption at 340 nm was monitored continuously for 6 hours at 30° C. on a multi-mode microplate reader (BioTek). The reaction rate was calculated using the 2-3 h time frame. The reaction rate at each concentration of compound was converted to percent inhibition using controls (i.e. reaction with no test compound and reaction with a known inhibitor) and IC50 values were calculated using software routines in Prism (GraphPad software).

[3] = system: ULK kinase; assay: pATG13 levels of mutant KRas A549 cells after treatment with ULK inhibitors in combination with trametinib (ELISA); assay type: cell-based, human; settings: A549 (KRAS mutant) lung cancer cells, 250 nM trametinib, overnight, pS318-ATG13
Experimental: Cellular Inhibition of ULK Kinase Substrate ATG13 Protein pATG13 Levels of Mutant KRas A549 Cells after Treatment with ULK Inhibitors in Combination with Trametinib
(§1) A549 (KRAS mutant) human lung cancer cells (6,000 cells/well) were added to a 384-well tissue-culture treated plate in 50 μL of pre-warmed DMEM medium supplemented with 10% characterized fetal bovine serum (Invitrogen, Carlsbad, Calif.), 100 units/mL penicillin G, and 100 μg/mL streptomycin and allowed to grow overnight at 37° C., 5% CO2, and 95% humidity. The following day, 10 μL of media containing trametinib or DMSO as a control was added to wells. […] A dose response of a test compound (0.6 μL per well) was added. DMSO (0.6 μL) was added to control wells. The plate was briefly shaken to mix wells and then incubated at 37° C. overnight. The next day, the media was aspirated and cells were washed with Dulbecco's Phosphate Buffered Saline (Gibco). Cells were lysed using MPER lysis buffer (Pierce, Rockford, Ill.) containing Halt Phosphatase and Protease Inhibitors (Pierce, Rockford, Ill.) and Phosphatase inhibitor cocktail 2 (Sigma, St. Louis, Mo.) at 4° C. for 10 minutes with shaking.
(§2) Plate wells were washed with ELISA wash buffer. Cell lysate was added to wells and incubated at room temperature for 2 hours. Plate wells were washed with ELISA wash buffer. […] Plate wells were washed with ELISA wash buffer. […] Plate wells were washed with ELISA wash buffer. […] The reaction was stopped with 2N Sulfuric Acid. The plate was analyzed at on a plate reader measuring absorbance at 450 nm and 540 nm (background). Signal was calculated by first subtracting the background absorbance at 540 nm from the absorbance at 450 nm for each well. Next, the background corrected absorbance at 450 nm from blank wells was subtracted from test wells. Data was compared to control wells to determine % ATG13 phosphorylation. GraphPad Prism was used to calculate IC50 values.

[4] = biological target: T3, ULK1 kinase (Homo sapiens, UniProt O75385, E37A/K38A); assay: Biochemical assay for ULK1.3 (coupled pyruvate kinase/lactate dehydrogenase assay, peptide substrate); settings: 0.1 nM ULK1 (residues 1-283), 1 mM ATP
T3 construct: purchased Beryllium
T3 sequence (O75385 1-283 E37A/K38A): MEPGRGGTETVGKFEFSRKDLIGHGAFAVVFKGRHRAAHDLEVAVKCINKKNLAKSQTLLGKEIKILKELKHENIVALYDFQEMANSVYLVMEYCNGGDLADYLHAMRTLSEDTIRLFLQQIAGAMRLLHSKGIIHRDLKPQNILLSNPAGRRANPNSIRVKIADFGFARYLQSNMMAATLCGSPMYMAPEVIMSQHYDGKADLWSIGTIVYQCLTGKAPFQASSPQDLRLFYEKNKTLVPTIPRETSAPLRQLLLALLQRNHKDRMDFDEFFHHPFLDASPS
Experimental: Biochemical Assay for ULK1.3 (SEQ. ID NO: 2)
Inhibition of ULK1 was measured by adding serial diluted test compound (final assay concentration of 1% DMSO). A decrease in absorption at 340 nm was monitored continuously for 6 hours at 30° C. on a multi-mode microplate reader (BioTek). The reaction rate was calculated using the 2-3 h time frame. The reaction rate at each concentration of compound was converted to percent inhibition using controls (i.e. reaction with no test compound and reaction with a known inhibitor) and IC50 values were calculated using software routines in Prism (GraphPad software).

[5] = system: ULK kinase; assay: pATG13 levels of mutant KRas MiaPaCa-2 cells after treatment with ULK inhibitors in combination with trametinib (ELISA); assay type: cell-based, human; settings: MiaPaCa-2 pancreatic cancer cells, 250 nM trametinib, overnight, pS318-ATG13
Experimental: as §1, with “MiaPaCa-2” for “A549 (KRAS mutant)”, “pancreatic” for “lung”, “(10000” for “(6,000”, “G, 100 µg/mL streptomycin,” for “G,”, “2.5% Horse Serum” for “100 μg/mL streptomycin”
as §2

Cc1cc(C2CCNCC2)ccc1Nc1ncc(Cl)c(NCCCN2CCCCC2=O)n1 [Example 5]
IC50 [1]: > 500 nM
IC50 [2]: 100 to 300 nM

Cc1cc(N2CCNCC2)ccc1Nc1ncc(C(F)(F)F)c(NCCCN2CCCC2=O)n1 [Example 3]
IC50 [1]: 100 to 500 nM

CCc1cc(N2C[C@@H]3C[C@H]2CN3C)ccc1Nc1ncc(C(F)(F)F)c(NCCCN2CCOCCC2=O)n1 [Example 119]
IC50 [3]: 100 to 300 nM
IC50 [4]: 1 to 25 nM
IC50 [2]: 100 to 300 nM
IC50 [5]: 10 to 100 nM

Cc1cc(N2CCNCC2)ccc1Nc1ncc(C(F)(F)F)c(NCCCN2CCCCC2=O)n1 [Example 16]
IC50 [1]: 1 to 25 nM
IC50 [3]: 10 to 100 nM
IC50 [5]: 10 to 100 nM

Cc1cc(N2CCN(C)CC2)ccc1Nc1ncc(C(F)(F)F)c(NCCCN2CCCC2=O)n1 [Example 2]
IC50 [1]: 100 to 500 nM
IC50 [2]: 1 to 100 nM

CN1C[C@H]2C[C@@H]1CN2c1ccc(Nc2ncc(C(F)(F)F)c(NCCCN3CCOCCC3=O)n2)c(C2CC2)c1 [Example 125]
IC50 [3]: 10 to 100 nM
IC50 [4]: 1 to 25 nM
IC50 [2]: 1 to 100 nM
IC50 [5]: 10 to 100 nM

CN1CCN(c2ccc(Nc3ncc(C(F)(F)F)c(NCCCN4CCOCCC4=O)n3)c(C3CCCC3)c2)CC1 [Example 112]
IC50 [3]: 100 to 300 nM
IC50 [4]: 1 to 25 nM
IC50 [2]: 100 to 300 nM
IC50 [5]: 100 to 300 nM

Cc1cc(N2CCN(C(C)C)CC2)ccc1Nc1ncc(C(F)(F)F)c(NCCCN2CCCCC2=O)n1 [Example 17]
IC50 [1]: 1 to 25 nM

CC1(C)CCC(=O)N1CCCNc1nc(Nc2ccc(N3CCN(C4CC4)CC3)cc2)ncc1C1CC1 [Example 1]
IC50 [1]: > 500 nM
IC50 [2]: > 600 nM

CN(C)C1CN(c2ccc(Nc3ncc(C(F)(F)F)c(NCCCN4CCCCC4=O)n3)c(C3CC3)c2)C1 [Example 126]
IC50 [3]: 100 to 300 nM
IC50 [4]: 1 to 25 nM
IC50 [2]: 1 to 100 nM
IC50 [5]: 10 to 100 nM

CC(C)c1cc(N2CCN(C)CC2)ccc1Nc1ncc(Br)c(NCCCN2CCOCCC2=O)n1 [Example 87]
IC50 [3]: 300 to 600 nM
IC50 [4]: 25 to 100 nM
IC50 [2]: 300 to 600 nM
IC50 [5]: 300 to 600 nM

CCc1cc(N2CCN3CCC[C@H]3C2)ccc1Nc1ncc(C(F)(F)F)c(NCCCN2CCOCCC2=O)n1 [Example 122]
IC50 [3]: 300 to 600 nM
IC50 [4]: 1 to 25 nM
IC50 [2]: 1 to 100 nM
IC50 [5]: 100 to 300 nM

COCc1cc(N2CCN(C)CC2)ccc1Nc1ncc(C(F)(F)F)c(NCCCN2CCOCCC2=O)n1 [Example 127]
IC50 [3]: 100 to 300 nM
IC50 [4]: 1 to 25 nM
IC50 [2]: 300 to 600 nM
IC50 [5]: 100 to 300 nM

Cc1cc(C2CCN(C)CC2)ccc1Nc1ncc(Cl)c(NCCCN2CCCCC2=O)n1 [Example 6]
IC50 [1]: > 500 nM

CN1CCN(c2ccc(Nc3ncc(C(F)(F)F)c(NCCCN4CCOCCC4=O)n3)c(Br)c2)CC1 [Example 131]
IC50 [3]: 100 to 300 nM
IC50 [4]: 1 to 25 nM
IC50 [2]: 100 to 300 nM
IC50 [5]: 300 to 600 nM

CN1CCN(c2cc(C3CC3)c(Nc3ncc(C(F)(F)F)c(NCCCN4CCCCC4=O)n3)cc2F)CC1 [Example 35]
IC50 [3]: 100 to 300 nM
IC50 [4]: 25 to 100 nM
IC50 [2]: 1 to 100 nM
IC50 [5]: 100 to 300 nM

CN1C[C@@H]2C[C@H]1CN2c1ccc(Nc2ncc(C(F)(F)F)c(NCCCN3CCOCCC3=O)n2)c(C2CC2)c1 [Example 116]
IC50 [3]: 100 to 300 nM
IC50 [4]: 25 to 100 nM
IC50 [2]: 1 to 100 nM
IC50 [5]: 10 to 100 nM

CN1CCN(c2ccc(Nc3ncc(C(F)(F)F)c(NCCCN4CCOCCC4=O)n3)c(Cl)c2)CC1 [Example 132]
IC50 [3]: 100 to 300 nM
IC50 [4]: 1 to 25 nM
IC50 [2]: 1 to 100 nM
IC50 [5]: 10 to 100 nM

O=C1CCOCCN1CCCNc1nc(Nc2ccc(N3CCN4CCC[C@@H]4C3)cc2C2CC2)ncc1C(F)(F)F [Example 107]
IC50 [3]: 10 to 100 nM
IC50 [4]: 1 to 25 nM
IC50 [2]: 100 to 300 nM
IC50 [5]: 10 to 100 nM

COCc1cc(N2CCN(C)CC2)ccc1Nc1ncc(C(F)(F)F)c(NCCCN2CCCOC2=O)n1 [Example 147]
IC50 [3]: 100 to 300 nM
IC50 [4]: 1 to 25 nM
IC50 [2]: 300 to 600 nM
IC50 [5]: 100 to 300 nM
